Laboratory results: patent EP1285918A1, “C7 Ester substituted taxanes as antitumor agents” (Florida State University Research Foundation, Inc., priority 2001, dated 2003)
Read-outs that look alike come from different tables or passages of the source.

Key:
[1] = system: SK-MES carcinoma; assay: In vivo evaluation against SK-MES human lung carcinoma xenograft, i.v. (Example 11)
Experimental: (§1) Two antitumor compounds were formulated for an i.v. dosing regime prepared in the following vehicle: 10% ethanol, 10% Cremophor and 80% isotonic saline. […] Other compounds were formulated similarly.
(§2) The MTDs for the antitumor compounds were calculated from earlier single dose data for mice receiving i.v. administration of these compounds. […] Vehicle control animals were dosed twice intravenously with half the total volume being given separated by one hour. The study was terminated at Day 60.
(§3) The results are summarized in Table 1 and include mean days of survival (MDS), number of toxic deaths, number of survivors, number of complete or partial responses, and number with stable disease. The mean days of survival is the number of days after which a neoplasm reached a size of 1.5 g and the animal was euthanized. A complete response is obtained if the tumor is not palpable at the end of the study. A partial response is obtained if the tumor shrinks to a size smaller than its size on Day 1 of the study.
(§4) A tumor scoring system was designed to provide a more quantitative ranking of efficacy (therapeutic potential) among the antitumor agents evaluated against the different human solid tumor xenografts. Each mouse in a study was given a score of from 1 to 10 at the end of the study. The scores can be summarized as follows:
(§5) The individual score for each mouse was averaged into a mean score for each treatment group. […]

[2] = system: NCI-H1299 (H1299) carcinoma
Experimental: as §1, §2, §3, §4, §5
The treatment protocol for the H1299 test was identical to the SK-MES test protocol. […]

[3] = system: MX-1 Human Breast Carcinoma Xenograft; conditions: for MDS (n): days until tumor reached 1.5 g
Experimental: The antitumor compounds were prepared in the following vehicle: 5% ethanol, 5% Cremophor and 90% isotonic saline.
Female Nu/Nu mice (12-13 weeks of age; implanted with 1 mm^3 MX-1 human breast carcinoma fragments in the flank) were sorted into treatment groups of six mice each (MX-1 tumor size ranges and group mean MX-1 tumor size ranges were 56-138 mg and 68-74 mg, respectively). […] All treatments were administered as a single oral bolus on Day 1, and the study was terminated on Day 60.
The mean days of survival is the number of days after which an MX-1 neoplasm reached a size of 1.5 g and the animal was euthanized. A complete response is obtained if the tumor is not palpable at the end of the study. A partial response is obtained if the tumor shrinks to a size smaller than its size on Day 1 of the study.

[4] = system: HCT116 human colon carcinoma xenograft; conditions: for long term survivors at the end of the experiment: HCT116, i.v. and oral groups together (out of thirty), Day 60; for Survivors / Complete Responses / Partial Responses / Stable Disease / Toxic Deaths: 10 mice/group, study end Day 60
Source text: Six groups consisting of ten mice in each group were made up of female Nu/Nu mice (8-9 weeks of age; implanted with 1 mm^3 HCT116 human […] carcinoma fragments in the flank). Another six groups consisting of ten mice in each group were made up of male Nu/Nu mice (6-7 weeks of age; implanted with 1 mm^3 HCT116 human […] carcinoma fragments in the flank). […] The study was terminated on Day 60.
The results are summarized in Table 19 for the female mice and Table 20 for the male mice. Included are mean days of survival (MDS), number of toxic deaths, number of survivors, number of complete or partial responses, and number with stable disease. The mean days of survival is the number of days after which an […] neoplasm reached a size of 1.5 g and the animal was euthanized. A complete response is obtained if the tumor is not palpable at the end of the study. A partial response is obtained if the tumor shrinks to a size smaller than its size on Day 1 of the study. […]

[5] = system: A2780 Human Ovarian Carcinoma Xenografts
Experimental: Other antitumor compounds were similarly formulated. […] The dosing volume was 0.3 ml per 20 g mouse.
Female NCr-nude mice (implanted subcutaneously with 1 mm^3 A2780 ovarian carcinoma fragments in the flank) were sorted into treatment groups of five mice each, except for the Taxotere treatment group including six mice. […] Dosing was initiated on Day 1. The antitumor compounds were given i.v. at an estimated maximum tolerated dose (MTD) appropriate for each agent on a qd x 1 schedule (single administration of compound). […] Taxotere was given i.v. on a qd x 1 schedule at a dose of 70 mg/kg. The vehicle was administered i.v. to control mice in Group 1 on the qd x 1 schedule. Treatment groups are detailed in Table 7. The study was terminated on Day 60.
as §3, with “Table 8” for “Table 1”, “of 2.0” for “of 1.5”

[6] = i.v. split dose qd x 1 at MTD (Taxol 36 mg/kg, 1393 72.1 mg/kg), 6 mice/group, Day 60
[7] = i.v. split dose qd x 1 at MTD (Taxol 36 mg/kg, 1393 72.1 mg/kg), 6 mice/group, 1.5 g cut-off, Day 60
[8] = i.v. split dose qd x 1 at MTD (Taxol 36 mg/kg, 1393 72.1 mg/kg), tumor score 1 to 10 per mouse, group mean
[9] = Taxol i.p. 15 mg/kg qd x 5, 5 mice, Day 60
[10] = i.v. qd x 1 (mg/kg: Taxol 24, 1351 75.3, 1401 107.6, 1418 107.6, Taxotere 70), Day 60
[11] = 28 mg/kg single oral bolus Day 1, 6 mice/group, study end Day 60
[12] = 40 mg/kg single oral bolus Day 1, 6 mice/group, study end Day 60
[13] = female mice, 18 mg/kg i.v. qd x 5
[14] = male mice, 18 mg/kg i.v. qd x 5

Compound: CCC(=O)OC1CC2OCC2(OC(C)=O)C2C(OC(=O)c3ccccc3)C3(O)CC(OC(=O)C(O)C(NC(=O)OC(C)(C)C)c4ccco4)C(C)=C(C(O)C(=O)C12C)C3(C)C (centres unmarked) [Compound 1393, 3'-Desphenyl-3'-(2-furyl)-7-propionyl taxotere]
- Complete Response [1, 6]: six
- Survivors [2, 6]: 4
- Survivors ([3]; 73.4 mg/kg single oral bolus Day 1, 6 mice/group, study end Day 60): 5
- Survivors ([3]; 105 mg/kg single oral bolus Day 1, 6 mice/group, study end Day 60): 5
- long term survivors at the end of the experiment ([4]; female mice, 1393 104 mg/kg): twenty-eight
- long term survivors at the end of the experiment ([4]; male mice, 1393 73 mg/kg): Twenty-nine
- Survivors ([4]; female mice, 104 mg/kg i.v. in 5% ethanol and 95% Liposyn II (Group 4)): 10
- Survivors ([4]; female mice, 104 mg/kg i.v. in 5% ethanol and 95% Liposyn III (Group 5)): 10
- Survivors ([4]; female mice, 104 mg/kg oral in 5% ethanol, 5% Cremophor and 90% isotonic saline (Group 6)): 9
- Survivors ([4]; male mice, 73 mg/kg i.v. in 5% ethanol and 95% Liposyn II (Group 4)): 10
- Survivors ([4]; male mice, 73 mg/kg i.v. in 5% ethanol and 95% Liposyn III (Group 5)): 8
- Survivors ([4]; male mice, 73 mg/kg oral in 5% ethanol, 5% Cremophor and 90% isotonic saline (Group 6)): 10

Compound: CC(=O)O[C@H]1C(=O)[C@@]2(C)[C@H]([C@H](OC(=O)c3ccccc3)[C@]3(O)C[C@H](OC(=O)[C@H](O)[C@@H](NC(=O)c4ccccc4)c4ccccc4)C(C)=C1C3(C)C)[C@]1(OC(C)=O)CO[C@@H]1C[C@@H]2O [Taxol, paclitaxel, reference compound]
- survival extension compared to vehicle controls ([1]; Taxol 36 mg/kg i.v.): 30%
- tolerability ([1]; i.v. at MTD): well tolerated
- MDS (n) [1, 7]: 16 ± 2.0 (6) days
- Complete Response [1, 6]: 0
- Partial Response [1, 6]: 0
- Stable Disease [1, 6]: 0
- Survivors [1, 6]: 0
- Toxic Deaths [1, 6]: 0
- Mean Score [1, 8]: 1.3 ± 0.3
- survival extension compared to vehicle-treated animals ([2]; Taxol 36 mg/kg i.v.): 10%
- MDS (n) [2, 7]: 27.0 ± 4.6 (5) days
- Complete Response [2, 6]: 0
- Stable Disease [2, 6]: 0
- Survivors [2, 6]: 1
- Toxic Deaths [2, 6]: 0
- Mean Score [2, 8]: 2.7 ± 1.3
- toxicity ([5]; Taxol i.p. 15 mg/kg qd x 5): highly toxic
- Complete Response [5, 9]: 0
- Partial Response [5, 9]: 0
- Stable Disease [5, 9]: 0
- Survivors [5, 9]: 0
- Mean Score ([5]; Taxol i.p. 15 mg/kg qd x 5, tumor score 1 to 10, group mean): 0.6 ± 0.6
- MDS (n) ([5]; i.v. qd x 1 (mg/kg: Taxol 24, 1351 75.3, 1401 107.6, 1418 107.6, Taxotere 70), 2.0 g cut-off, Day 60): 21.9 ± 5.5 (5) days
- Complete Response [5, 10]: 0
- Partial Response [5, 10]: 0
- Survivors [5, 10]: 1
- Toxic Deaths [5, 10]: 0
- Mean Score ([5]; i.v. qd x 1 (mg/kg: Taxol 24, 1351 75.3, 1401 107.6, 1418 107.6, Taxotere 70), tumor score 1 to 10, group mean): 1.8 ± 0.4
- survival extension compared to Group 1 controls ([5]; i.v. qd x 1 (mg/kg: Taxol 24, 1418 107.6, Taxotere 70)): 87%
- Complete Responses [3, 11]: 0
- Partial Responses [3, 11]: 0
- Stable Disease [3, 11]: 1
- Survivors [3, 11]: 1
- Toxic Deaths [3, 11]: 0
- MDS (n) [3, 11]: 23.1 ± 1.7 (5) days
- Complete Responses [3, 12]: 0
- Partial Responses [3, 12]: 1
- Stable Disease [3, 12]: 0
- Survivors [3, 12]: 1
- Toxic Deaths [3, 12]: 0
- MDS (n) [3, 12]: 23.2 ± 1.3 (5) days
- Stable Disease ([3]; MX-1, single oral bolus, Taxol 40 and 28 mg/kg groups together, Day 60): one
- Partial Response ([3]; MX-1, single oral bolus, Taxol 40 and 28 mg/kg groups together, Taxotere 100 and 70 mg/kg groups together, Day 60): One
- Complete Responses [4, 13]: 4
- Partial Responses [4, 13]: 1
- Stable Disease [4, 13]: 1
- Survivors [4, 13]: 6
- Toxic Deaths [4, 13]: 1
- Complete Responses [4, 14]: 1
- Partial Responses [4, 14]: 2
- Stable Disease [4, 14]: 1
- Survivors [4, 14]: 4
- Toxic Deaths [4, 14]: 0
